From patent publication US10435399B2, “HDAC6 inhibitory heterocyclic compound” (TAKEDA PHARMACEUTICAL COMPANY LIMITED, priority 2017, dated 2019)

System: liver and glandular stomach cells
Experiment: Comet assay in rats (liver and glandular stomach)
Format: in vivo, rats (Crl:CD(SD))
Conditions: rats, 1000 mg/kg and 2000 mg/kg once daily for 3 days
Description: Combination Assay of Micronucleus Test and Comet Assay in Rats
The compound of Example 489 at doses of 1000 and 2000 mg/kg was orally administered to 8 to 9-week-old rats (Crl:CD(SD), five/group) once daily for 3 days, and micronucleus induction was evaluated in bone-marrow cells, and DNA damage was evaluated by DNA fragmentation of cell nucleus in the liver and glandular stomach.
Sample for comet assay was obtained from liver and glandular stomach by the following procedures. A part of left lateral lobe of liver was washed well with a cooled mincing buffer solution (Hanks' balanced salt solution containing 20 mmol/L EDTA and 10 vol % DMSO, pH7.5), and minced finely with dissecting scissors. This sample was kept on ice for 15 to 30 seconds, the precipitated large cell mass was removed, and the obtained cell suspension was kept on ice. Glandular stomach was added to a cooled mincing buffer solution, and kept on ice for 15 to 30 min. Then, the surface epithelium was removed by scraping gently twice, the stomach mucosa was washed well with a cooled mincing buffer solution, and the mucosa surface was taken out by scraping carefully four times or five times. This was kept on ice for 15 to 30 seconds, the precipitated large cell mass was removed, and the obtained cell suspension was kept on ice.
The liver and glandular stomach cell suspensions prepared by the above-mentioned procedures were added to 0.5 w/v % low-melting agarose so that the concentration became 10 vol % or less, 40 μL of the suspension was dropped to MAS-coated slide (Matsunami Glass Ind., Ltd.), and fixed to give a slide sample. The slide sample was immersed in a cooled cell lysate [an aqueous solution containing 2.5 mol/L sodium chloride, 100 mmol/L EDTA, 10 mmol/L tris(hydroxymethyl)aminomethane, 10 vol % DMSO and 1 vol % Triton X-100, pH 10.0], and kept overnight under light shielding in a refrigerator (2 to 8° C.).
The slide sample was washed with ultrapure water, set at random into an electrophoresis apparatus filled with an alkali buffer solution (an aqueous solution containing 0.3 mol/L sodium hydroxide and 1 mmol/L EDTA, pH >13) for electrophoresis. After confirming that the sample was completely immersed, the sample was left for 20 min to unwind the strands. Next, electrophorese was performed at a constant voltage of 0.7 to 1 V/cm (current is set about 0.30 A) for 20 min (the electrophoresis apparatus was kept on ice so that the alkali buffer solution for electrophoresis was kept at a constant temperature of 10° C. or below, during from the dissociation of the strands to electrophoresis). After electrophoresis, the slide sample was immersed in a neutralizing solution [0.4 mol/L aqueous tris(hydroxymethyl)aminomethane solution, pH 7.5] for 5 min or longer. Then, the slide sample was immersed in ethanol for 5 min or longer, and air-dried. […] The slide samples for negative control, test compound and positive control groups were encoded, and analyzed by the blind method. In each individual animal, 150 of suitable cells were selected for observation using a biological microscope with fluorescence attachment at 200-fold final magnification, and analyzed by image analysis software (Comet Assay IV, Perceptive Instruments Ltd.). The degree of the DNA damage was evaluated by % tail intensity calculated automatically from image analysis software. The median of the % tail intensity was calculated in each slide sample, and the average of the median was calculated in each individual. […]

DNA strand breakage in liver and glandular stomach cells: not induced
SMILES: O=C1c2cc(-c3nnc(C(F)F)o3)cnc2CN1[C@@H]1CCCC[C@H]1NC(=O)C(F)(F)C(F)(F)F [Example 489, N-((1R,2R)-2-(3-(5-(difluoromethyl)-1,3,4-oxadiazol-2-yl)-5-oxo-5,7-dihydro-6H-pyrrolo[3,4-b]pyridin-6-yl)cyclohexyl)-2,2,3,3,3-pentafluoropropanamide]
